According to ChEMBL document CHEMBL1154597, “1,1'-Disubstituted ferrocenes as molecular hinges in mono- and bivalent dopamine receptor ligands” (J Med Chem, 2009):

What was measured:
[1] = target: D(1A) dopamine receptor (Sus scrofa, UniProt P50130); assay: Displacement of [3H]SCH23390 from dopamine D1 receptor in pig striatal membranes; assay type: cell membranes, Striatum, Membrane
[2] = target: T1, D(2) dopamine receptor (Homo sapiens, UniProt P14416); assay: Displacement of [3H]spiperone from human cloned dopamine D2long receptor expressed in CHO cells; assay type: cell-based
T1 sequence (P14416 whole entry): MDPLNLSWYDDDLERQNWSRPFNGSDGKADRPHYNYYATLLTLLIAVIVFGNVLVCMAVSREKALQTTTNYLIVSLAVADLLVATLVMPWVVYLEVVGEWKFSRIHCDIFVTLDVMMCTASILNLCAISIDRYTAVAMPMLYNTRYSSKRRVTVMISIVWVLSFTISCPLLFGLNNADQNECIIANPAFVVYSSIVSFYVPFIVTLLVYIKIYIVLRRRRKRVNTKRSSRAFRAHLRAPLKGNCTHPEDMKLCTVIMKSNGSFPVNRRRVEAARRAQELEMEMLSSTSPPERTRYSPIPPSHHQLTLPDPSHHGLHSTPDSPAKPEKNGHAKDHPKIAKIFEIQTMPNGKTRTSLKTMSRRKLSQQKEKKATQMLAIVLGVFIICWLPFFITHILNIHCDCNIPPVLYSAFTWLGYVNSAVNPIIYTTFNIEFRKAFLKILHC

[3] = target: T1, D(2) dopamine receptor; assay: Displacement of [3H]spiperone from human cloned dopamine D2short receptor expressed in CHO cells; assay type: cell-based
[4] = target: D(3) dopamine receptor (Homo sapiens, UniProt P35462); assay: Displacement of [3H]spiperone from human cloned dopamine D3 receptor expressed in CHO cells; assay type: cell-based
D(3) dopamine receptor, sequence (P35462 whole entry): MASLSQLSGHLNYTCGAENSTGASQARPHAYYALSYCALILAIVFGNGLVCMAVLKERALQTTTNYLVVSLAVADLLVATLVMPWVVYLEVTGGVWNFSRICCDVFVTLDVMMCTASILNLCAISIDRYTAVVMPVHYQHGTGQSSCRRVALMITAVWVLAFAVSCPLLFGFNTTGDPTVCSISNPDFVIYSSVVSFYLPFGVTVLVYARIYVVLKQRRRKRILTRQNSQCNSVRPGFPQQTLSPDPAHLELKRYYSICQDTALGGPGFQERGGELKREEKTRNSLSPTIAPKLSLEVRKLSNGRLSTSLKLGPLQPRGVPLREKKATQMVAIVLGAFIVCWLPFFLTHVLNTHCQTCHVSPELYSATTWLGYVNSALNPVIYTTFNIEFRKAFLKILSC

[5] = target: T2, D(4) dopamine receptor (Homo sapiens, UniProt P21917); assay: Displacement of [3H]spiperone from human cloned dopamine D4.4 receptor expressed in CHO cells; assay type: cell-based
T2 sequence (P21917 whole entry): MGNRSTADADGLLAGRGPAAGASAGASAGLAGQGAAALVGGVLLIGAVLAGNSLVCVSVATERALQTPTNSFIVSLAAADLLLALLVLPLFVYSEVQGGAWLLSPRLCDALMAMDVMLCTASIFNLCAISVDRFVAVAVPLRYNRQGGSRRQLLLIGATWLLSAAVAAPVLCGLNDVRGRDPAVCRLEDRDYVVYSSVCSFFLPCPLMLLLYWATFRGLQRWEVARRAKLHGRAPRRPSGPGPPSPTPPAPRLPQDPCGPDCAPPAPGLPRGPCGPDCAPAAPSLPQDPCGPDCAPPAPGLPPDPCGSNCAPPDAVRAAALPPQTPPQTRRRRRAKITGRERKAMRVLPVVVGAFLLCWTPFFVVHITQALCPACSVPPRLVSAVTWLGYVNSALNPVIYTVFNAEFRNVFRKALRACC

[6] = Displacement of [3H]WAY100635 from 5HT1A receptor in pig striatal membranes; assay type: cell membranes, Sus scrofa, Striatum, Membrane
[7] = target: 5-hydroxytryptamine receptor 2A (Sus scrofa, UniProt P50129); assay: Displacement of [3H]ketanserin from 5HT2 receptor in pig striatal membranes; assay type: cell membranes, Striatum, Membrane
5-hydroxytryptamine receptor 2A, sequence (P50129 whole entry): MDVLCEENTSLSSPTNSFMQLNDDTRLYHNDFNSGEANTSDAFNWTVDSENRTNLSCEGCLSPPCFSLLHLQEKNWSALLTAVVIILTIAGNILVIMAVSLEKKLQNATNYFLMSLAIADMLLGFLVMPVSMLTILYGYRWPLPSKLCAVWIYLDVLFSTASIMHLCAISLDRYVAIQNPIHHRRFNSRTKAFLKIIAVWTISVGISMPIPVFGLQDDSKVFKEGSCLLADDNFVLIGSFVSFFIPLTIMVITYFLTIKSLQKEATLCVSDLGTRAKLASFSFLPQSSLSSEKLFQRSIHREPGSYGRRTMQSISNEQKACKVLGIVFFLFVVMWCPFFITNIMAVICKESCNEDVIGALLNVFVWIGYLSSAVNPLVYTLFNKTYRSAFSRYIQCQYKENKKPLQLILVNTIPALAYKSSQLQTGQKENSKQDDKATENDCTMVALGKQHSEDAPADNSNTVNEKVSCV

[8] = Displacement of [3H]prazosin from adrenergic alpha1 receptor in pig striatal membranes; assay type: cell membranes, Sus scrofa, Striatum, Membrane

D(1A) dopamine receptor, sequence (P50130 whole entry): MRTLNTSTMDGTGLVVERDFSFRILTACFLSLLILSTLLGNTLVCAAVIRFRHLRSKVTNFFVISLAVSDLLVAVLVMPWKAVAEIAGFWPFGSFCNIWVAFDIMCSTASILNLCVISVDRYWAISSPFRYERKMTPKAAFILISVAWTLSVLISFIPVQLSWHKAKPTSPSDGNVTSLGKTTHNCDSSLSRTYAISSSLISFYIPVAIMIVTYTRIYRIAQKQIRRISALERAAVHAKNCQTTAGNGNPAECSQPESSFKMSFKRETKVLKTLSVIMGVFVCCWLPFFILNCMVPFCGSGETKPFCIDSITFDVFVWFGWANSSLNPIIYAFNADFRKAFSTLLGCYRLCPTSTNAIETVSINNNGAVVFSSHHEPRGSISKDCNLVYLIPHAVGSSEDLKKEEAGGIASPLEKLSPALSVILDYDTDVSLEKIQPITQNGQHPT

Row | Ki [1] [nM] | Ki [2] [nM] | Ki [3] [nM] | Ki [4] [nM] | Ki [5] [nM] | Ki [6] [nM] | Ki [7] [nM] | Ki [8] [nM] | Compound
1 | 9500 | 2000 | 770 | 70 | 850 | 1200 | 1700 | 230 | COc1ccccc1N1CCN(CCCCNC(=O)c2ccc(-c3cn(Cc4ccc(-c5ccc(Cn6cc(-c7ccc(C(=O)NCCCCN8CCN(c9ccccc9OC)CC8)cc7)nn6)cc5)cc4)nn3)cc2)CC1
2 | 3400 | 15000 | 10000 | 230 | 3400 | 2500 | 3400 | 350 | COc1ccccc1N1CCN(CCCCNC(=O)c2cccc(-c3cn(Cc4ccc(-c5ccc(Cn6cc(-c7cccc(C(=O)NCCCCN8CCN(c9ccccc9OC)CC8)c7)nn6)cc5)cc4)nn3)c2)CC1
